US9744188B2, “Methods of promoting neuronal outgrowth by gypican 2 that binds to receptor protein tyrosine phosphatase sigma” (PRESIDENT AND FELLOWS OF HARVARD COLLEGE, priority 2011, dated 2017)

Target: T1, DLAR Ig1-FN3 (Drosophila melanogaster, UniProt P16621)
T1 construct: hexahistidine (C); made in house; host or cells: HEK-293T cells with kifunensine or GnTI- HEK293S cells
T1 sequence (P16621 33-606): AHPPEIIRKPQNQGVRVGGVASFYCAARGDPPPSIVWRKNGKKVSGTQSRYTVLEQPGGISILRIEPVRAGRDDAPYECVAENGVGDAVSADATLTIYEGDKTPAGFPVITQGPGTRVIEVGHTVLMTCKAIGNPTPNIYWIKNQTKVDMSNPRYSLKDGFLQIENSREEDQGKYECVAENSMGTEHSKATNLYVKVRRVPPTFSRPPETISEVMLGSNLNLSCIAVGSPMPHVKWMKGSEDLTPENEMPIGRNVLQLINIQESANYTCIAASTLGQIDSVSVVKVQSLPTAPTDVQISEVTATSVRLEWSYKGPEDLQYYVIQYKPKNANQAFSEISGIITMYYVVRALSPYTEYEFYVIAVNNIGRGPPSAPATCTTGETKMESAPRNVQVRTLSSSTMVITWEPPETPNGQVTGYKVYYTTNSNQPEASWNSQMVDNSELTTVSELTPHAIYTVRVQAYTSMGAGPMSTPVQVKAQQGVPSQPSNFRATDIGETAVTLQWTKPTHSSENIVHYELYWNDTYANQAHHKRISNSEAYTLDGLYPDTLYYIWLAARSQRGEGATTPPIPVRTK
Experiment: SEC-MALS, heparin-induced oligomerisation of DLAR
Format: biochemical
Protocol: MALS experiments were carried out on a […] System (Wyatt Technologies). All proteins were purified as described above, and samples were incubated alone or with an oligosaccharide ligand for an hour at room temperature prior to use in MALS analysis. For size defined heparin fragments (Iduron dp4-dp30; product codes HO04-HO30) a five-fold molar excess of oligosaccharide to protein was used, except for the series of experiments presented in FIG. 13, where a range of RPTPσ constructs were tested with a separate batch of dp10 at a two-fold molar excess (FIG. 37, highlighted in blue). Equivalent amounts (equal mg/ml concentrations) of HS (Iduron, GAG-HS01) and CS (Sigma, C4384) were used for MALS experiments as had been for heparin dp10 (in giving a five-fold molar excess). […] All Ig1-FN3 proteins were injected at approximately 10 μM. Size exclusion chromatography was performed in 10 mM Tris, 50 mM NaCl, pH 7.5 on a Superdex75 or Superdex200 HR10/30 column (GE Healthcare), attached to an Agilent chromatography system. An Optilab rEX Refractive Index detector and a Dawn Helios II Multi-Angle Light Scattering (MALS) detector recorded the refractive index and light scattering of the samples upon elution from the size exclusion column. The Wyatt software ASTRA was used to analyse all the data collected.

oligomerisation of DLAR Ig1-FN3: promotes the oligomerisation
Substance: Heparin
